We go through 28 molecules from publication PMC3319116 (Journal of Medicinal Chemistry, 2012).

Data set [1] concerns the target T1, CB1 (Homo sapiens, UniProt P21554). Briefly: CB1 Gαq16-coupled intracellular calcium mobilization assay in CHO-K1 cells. The format is cell-based.
Data set [2] is described as follows: In vivo evaluation of brain penetration. To be noted: 10 mg/kg; for bioavailable with oral or intra-peritoneal dosing: oral or ip. Also on record: species or system rats.
The target in data set [3] is T1, CB1. The experiment in a line: Radioligand displacement of [3H]CP55940 at CB1. The format is binding. Particulars: Ki vs CP55940.

T1 sequence (P21554 whole entry): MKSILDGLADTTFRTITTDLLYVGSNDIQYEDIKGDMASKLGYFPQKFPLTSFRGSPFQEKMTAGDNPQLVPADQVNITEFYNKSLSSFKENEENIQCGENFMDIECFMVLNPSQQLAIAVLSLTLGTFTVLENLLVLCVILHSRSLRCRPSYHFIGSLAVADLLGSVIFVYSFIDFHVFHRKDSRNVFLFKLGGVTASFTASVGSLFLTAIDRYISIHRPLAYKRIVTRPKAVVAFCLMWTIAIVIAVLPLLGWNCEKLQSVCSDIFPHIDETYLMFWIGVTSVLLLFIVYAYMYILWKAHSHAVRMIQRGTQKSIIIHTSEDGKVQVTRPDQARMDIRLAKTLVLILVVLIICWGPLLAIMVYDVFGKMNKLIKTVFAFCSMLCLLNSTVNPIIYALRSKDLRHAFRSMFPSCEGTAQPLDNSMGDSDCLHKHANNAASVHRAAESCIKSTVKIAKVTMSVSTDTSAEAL

On to `Cc1c(C(=O)N[C@H]2CCCNC2)nn(-c2ccc(Cl)cc2Cl)c1-c1ccc(Cl)cc1` [Compound 19b, 5-(4-Chlorophenyl)-1-(2,4-dichlorophenyl)-4-methyl-N-[(3S)-piperidin-3-yl]-1H-pyrazole-3-carboxamide], for which the Kb in data set [1] stood at 1.88 µM.

Regarding `CC(=O)N1CCC[C@@H](NC(=O)c2nn(-c3ccc(Cl)cc3Cl)c(-c3ccc(Cl)cc3)c2C)C1` [Compound 20c, N-[(3R)-1-Acetylpiperidin-3-yl]-5-(4-chlorophenyl)-1-(2,4-dichlorophenyl)-4-methyl-1H-pyrazole-3-carboxamide], the Kb in data set [1] turned out to be 0.53 µM. Same read-out and setting: the figure for `Cc1c(C(=O)N[C@H]2CCCN(C(=O)OC(C)(C)C)C2)nn(-c2ccc(Cl)cc2Cl)c1-c1ccc(Cl)cc1` [Compound 19a, tert-Butyl-(3S)-3-[5-(4-chlorophenyl)-1-(2,4-dichlorophenyl)-4-methyl-1H-pyrazole-3-amido]piperidine-1-carboxylate] is 0.842 µM; for `CCNC(=O)NCC1CCC(CNC(=O)c2nn(-c3ccc(Cl)cc3Cl)c(-c3ccc(Cl)cc3)c2C)CC1` (stereo not shown) [Compound 21a, 5-(4-Chlorophenyl)-1-(2,4-dichlorophenyl)-N-[(4-{[(ethylcarbamoyl)amino]methyl}cyclohexyl)methyl]-4-methyl-1H-pyrazole-3-carboxamide] it is 0.135 µM; for `CCCCNC(=O)NCC1CCC(CNC(=O)c2nn(-c3ccc(Cl)cc3Cl)c(-c3ccc(Cl)cc3)c2C)CC1` (stereo not shown) [Compound 21d, N-[(4-{[(Butylcarbamoyl)amino]methyl}cyclohexyl)methyl]-5-(4-chlorophenyl)-1-(2,4-dichlorophenyl)-4-methyl-1H-pyrazole-3-carboxamide] it is 0.274 µM.

With `Cc1c(C(=O)N[C@H]2CCCN(C(=O)NC(C)C)C2)nn(-c2ccc(Cl)cc2Cl)c1-c1ccc(Cl)cc1` [Compound 19f, (3S)-3-C-5-(4-Chlorophenyl)-1-(2,4-dichlorophenyl)-4-methyl-1H-pyrazole-3-1-N-(propan-2-yl)piperidine-1,3-diamido], in data set [1], the Kb came out at 0.265 µM.

As to `CCNC(=O)N1CCC[C@@H](NC(=O)c2nn(-c3ccc(Cl)cc3Cl)c(-c3ccc(Cl)cc3)c2C)C1` [Compound 20e, (3R)-3-C-5-(4-Chlorophenyl)-1-(2,4-dichlorophenyl)-4-methyl-1H-pyrazole-3-1-N-ethylpiperidine-1,3-diamido], the Kb in data set [1] amounted to 0.171 µM. The same measure, in the same setting: the figure for `Cc1c(C(=O)NCC2CCC(CNC(=O)NC(C)(C)C)CC2)nn(-c2ccc(Cl)cc2Cl)c1-c1ccc(Cl)cc1` (stereo not shown) [Compound 21e, N-[(4-{[(tert-Butylcarbamoyl)amino]methyl}cyclohexyl)methyl]-5-(4-chlorophenyl)-1-(2,4-dichlorophenyl)-4-methyl-1H-pyrazole-3-carboxamide] is 0.15 µM; for `Cc1c(C(=O)NCC2CCC(CNC(=O)NC(C)C)CC2)nn(-c2ccc(Cl)cc2Cl)c1-c1ccc(Cl)cc1` (stereo not shown) [Compound 21b, 5-(4-Chlorophenyl)-1-(2,4-dichlorophenyl)-4-methyl-N-{[4-({[(propan-2-yl)carbamoyl]amino}methyl)cyclohexyl]methyl}-1H-pyrazole-3-carboxamide] it is 0.351 µM. Same read-out and setting: the figure for `CCNC(=O)N1CCC[C@H](NC(=O)c2nn(-c3ccc(Cl)cc3Cl)c(-c3ccc(Cl)cc3)c2C)C1` [Compound 19e, (3S)-3-C-5-(4-Chlorophenyl)-1-(2,4-dichlorophenyl)-4-methyl-1H-pyrazole-3-1-N-ethylpiperidine-1,3-diamido] is 0.28 µM. As to `Cc1c(C(=O)NC2CCN(C(=O)OC(C)(C)C)CC2)nn(-c2ccc(Cl)cc2Cl)c1-c1ccc(Cl)cc1` [Compound 18a, tert-Butyl-4-[5-(4-chlorophenyl)-1-(2,4-dichlorophenyl)-4-methyl-1H-pyrazole-3-amido]piperidine-1-carboxylate], the “bioavailable with oral or intra-peritoneal dosing” value in data set [2] is on record as “bioavailable”. As to `Cc1c(C(=O)N[C@@H]2CCCN(S(C)(=O)=O)C2)nn(-c2ccc(Cl)cc2Cl)c1-c1ccc(Cl)cc1` [Compound 20d, 5-(4-Chlorophenyl)-1-(2,4-dichlorophenyl)-N-[(3R)-1-methanesulfonylpiperidin-3-yl]-4-methyl-1H-pyrazole-3-carboxamide], the Kb in data set [1] was 0.007 µM. Besides, the “potency relative to sulfonamide 7” value in data set [1] (Ke CB1, fold more potent than 7) is recorded as 16 fold. Moreover, the “selectivity for CB1 versus CB2” value in data set [3] is reported as “over 100 fold”. Turning to `Cc1c(C(=O)N[C@H]2CCCN(C(=O)NC(C)(C)C)C2)nn(-c2ccc(Cl)cc2Cl)c1-c1ccc(Cl)cc1` [Compound 19i, (3S)-1-N-tert-Butyl-3-C-5-(4-chlorophenyl)-1-(2,4-dichlorophenyl)-4-methyl-1H-pyrazole-3-piperidine-1,3-diamido], the Kb in data set [1] amounted to 0.206 µM. On the same count and under the same terms, the figure for `Cc1c(C(=O)NC2CCN(S(N)(=O)=O)CC2)nn(-c2ccc(Cl)cc2Cl)c1-c1ccc(Cl)cc1` [Compound 18e, 5-(4-Chlorophenyl)-1-(2,4-dichlorophenyl)-4-methyl-N-(1-sulfamoylpiperidin-4-yl)-1H-pyrazole-3-carboxamide] is 0.592 µM; for `Cc1c(C(=O)N2CCC(NC(=O)Nc3ccc(N(C)C)cc3)(c3ccccc3)CC2)nn(-c2ccc(Cl)cc2Cl)c1-c1ccc(Cl)cc1` [Compound 17e, 3-(1-{[5-(4-Chlorophenyl)-1-(2,4-dichlorophenyl)-4-methyl-1H-pyrazol-3-yl]carbonyl}-4-phenylpiperidin-4-yl)-1-[4-(dimethylamino)phenyl]urea] it is 0.264 µM. Turning to `Cc1c(C(=O)N2CCC(NC(=O)NCc3ccccc3)(c3ccccc3)CC2)nn(-c2ccc(Cl)cc2Cl)c1-c1ccc(Cl)cc1` [Compound 17b, 1-Benzyl-3-(1-{[5-(4-chlorophenyl)-1-(2,4-dichlorophenyl)-4-methyl-1H-pyrazol-3-yl]carbonyl}-4-phenylpiperidin-4-yl)urea], the “Ke (nM) CB1” value in data set [1] (apparent dissociation affinity constant, rightward shift of CP55940 curve) is on record as 2.09 nM. On to `Cc1c(C(=O)NC2CCN(S(C)(=O)=O)CC2)nn(-c2ccc(Cl)cc2Cl)c1-c1ccc(Cl)cc1` [Compound 18d, 5-(4-Chlorophenyl)-1-(2,4-dichlorophenyl)-N-(1-methanesulfonylpiperidin-4-yl)-4-methyl-1H-pyrazole-3-carboxamide], for which the Kb in data set [1] was found to be 0.269 µM.

`CCCCNC(=O)N1CCC[C@H](NC(=O)c2nn(-c3ccc(Cl)cc3Cl)c(-c3ccc(Cl)cc3)c2C)C1` [Compound 19h, (3S)-1-N-Butyl-3-C-5-(4-chlorophenyl)-1-(2,4-dichlorophenyl)-4-methyl-1H-pyrazole-3-piperidine-1,3-diamido]: the Kb in data set [1] is 0.23 µM. The same measure, in the same setting: the figure for `CCOC(=O)N1CCC(NC(=O)c2nn(-c3ccc(Cl)cc3Cl)c(-c3ccc(Cl)cc3)c2C)CC1` [Compound 18l, Ethyl-4-[5-(4-chlorophenyl)-1-(2,4-dichlorophenyl)-4-methyl-1H-pyrazole-3-amido]piperidine-1-carboxylate] is 0.003 µM; for `CC(=O)N1CCC(NC(=O)c2nn(-c3ccc(Cl)cc3Cl)c(-c3ccc(Cl)cc3)c2C)CC1` [Compound 18c, N-(1-Acetylpiperidin-4-yl)-5-(4-chlorophenyl)-1-(2,4-dichlorophenyl)-4-methyl-1H-pyrazole-3-carboxamide] it is 0.195 µM.

Regarding `Cc1c(C(=O)N[C@@H]2CCCN(C(=O)NC(C)(C)C)C2)nn(-c2ccc(Cl)cc2Cl)c1-c1ccc(Cl)cc1` [Compound 20i, (3R)-1-N-tert-Butyl-3-C-5-(4-chlorophenyl)-1-(2,4-dichlorophenyl)-4-methyl-1H-pyrazole-3-piperidine-1,3-diamido], the Kb in data set [1] was 0.268 µM. The same measure, in the same setting: the figure for `Cc1c(C(=O)NC2CCNCC2)nn(-c2ccc(Cl)cc2Cl)c1-c1ccc(Cl)cc1` [Compound 18b, 5-(4-Chlorophenyl)-1-(2,4-dichlorophenyl)-4-methyl-N-(piperidin-4-yl)-1H-pyrazole-3-carboxamide] is 5.11 µM.

Consider `Cc1c(C(=O)N2CCC(NC(=O)NC(C)(C)C)(c3ccccc3)CC2)nn(-c2ccc(Cl)cc2Cl)c1-c1ccc(Cl)cc1` [Compound 17a, 3-tert-Butyl-1-(1-{[5-(4-chlorophenyl)-1-(2,4-dichlorophenyl)-4-methyl-1H-pyrazol-3-yl]carbonyl}-4-phenylpiperidin-4-yl)urea], for which, in data set [2] (Oral, 60 min, unperfused brain), the “Brain Conc.” value is “below the lower limit of quantitation”. Moreover, in data set [2], the “bioavailable with oral or intra-peritoneal dosing” value is “bioavailable”. With `Cc1c(C(=O)N[C@@H]2CCCNC2)nn(-c2ccc(Cl)cc2Cl)c1-c1ccc(Cl)cc1` [Compound 20b, 5-(4-Chlorophenyl)-1-(2,4-dichlorophenyl)-4-methyl-N-[(3R)-piperidin-3-yl]-1H-pyrazole-3-carboxamide], the Kb in data set [1] was found to be 1.17 µM.

For the molecule `CCCNC(=O)NCC1CCC(CNC(=O)c2nn(-c3ccc(Cl)cc3Cl)c(-c3ccc(Cl)cc3)c2C)CC1` (stereo not shown) [Compound 21c, 5-(4-Chlorophenyl)-1-(2,4-dichlorophenyl)-4-methyl-N-[(4-{[(propylcarbamoyl)amino]methyl}cyclohexyl)methyl]-1H-pyrazole-3-carboxamide], the Kb in data set [1] was determined as 0.486 µM. Take `Cc1c(C(=O)NC2CCN(C(=O)NC(C)(C)C)CC2)nn(-c2ccc(Cl)cc2Cl)c1-c1ccc(Cl)cc1` [Compound 18f, 1-N-tert-Butyl-4-C-5-(4-chlorophenyl)-1-(2,4-dichlorophenyl)-4-methyl-1H-pyrazole-3-piperidine-1,4-diamido]: in data set [2], the “bioavailable with oral or intra-peritoneal dosing” value is listed as “bioavailable”.

As to `Cc1c(C(=O)N2CCC(C(=O)O)(c3ccccc3)CC2)nn(-c2ccc(Cl)cc2Cl)c1-c1ccc(Cl)cc1` [Compound 10, 1-{[5-(4-Chlorophenyl)-1-(2,4-dichlorophenyl)-4-methyl-1H-pyrazol-3-yl]carbonyl}-4-phenylpiperidine-4-carboxylic acid], the Kb in data set [1] came out at 1.17 µM. Still for that read-out and setting: the figure for `CCCCNC(=O)N1CCC[C@@H](NC(=O)c2nn(-c3ccc(Cl)cc3Cl)c(-c3ccc(Cl)cc3)c2C)C1` [Compound 20h, (3R)-1-N-Butyl-3-C-5-(4-chlorophenyl)-1-(2,4-dichlorophenyl)-4-methyl-1H-pyrazole-3-piperidine-1,3-diamido] is 0.118 µM.
